This note sets out measurements from patent US10272133B2, “Compositions and methods for treating and preventing hyperlipidemia, fatty liver, atherosclerosis and other disorders associated with metabolic syndrome” (VANDERBILT UNIVERSITY, priority 2011, dated 2019).

Converted amounts (≈) assume the structure as drawn. Read-outs that look alike come from different tables or passages of the source. Bridge positions count the residues as written; N and C are the ends. Ends that are not written are not given here. Peptide text beside a SMILES is read from it.

For one data set, the system named is ldlr−/− mice. Description: General safety in ldlr-/- mice (blood cells, blood chemistries, infection). In kind it is in vivo, mouse. Here is the method: Six week old B6.129S7-Ldlrtm1Her/J female mice were purchased from Jackson Laboratories. Mice were fed a Western diet containing 21% milk fat and 0.15% cholesterol and maintained according to the guidelines for use and care of laboratory animals approved by the Vanderbilt University Institutional Animal Care and Use Committee. Mice and food were weighed at the beginning and end of each experiment. Blood chemistries were determined in fasting mouse plasma using an automated chemistry analyzer in the Vanderbilt Clinical Research Center. Total cholesterol and triglycerides in liver and cholesterol in feces were analyzed by standard methods in the Lipid Core Laboratory. Complete blood cell counts were performed in the Clinical Hematology Laboratory and flow cytometry analysis of lymphocytes subsets was. Cryostat sections of livers were stained with Oil-red-O. Atherosclerotic lesions and macrophages were analyzed in the aortic root by staining with Oil-red-O and MOMA-2, respectively. Average lesion area was determined using Imaging System KS300 2.0.

A further data set can be described thus: Solubility of peptides. In kind it is physicochemical.
Data set [1] deals with importins alpha 1, 4, and 5. Description: Importins pull-down assay, Jurkat T cell extract. In kind it is binding, human. Particulars: biotinylated peptide, Jurkat T cell lysate pull-down. As to the method: (§1) Cell-penetrating peptide cSN50.1 (2986 Da) and other peptides listed in Table 1 were synthesized and prepared as previously described (Liu, D., et al., (2009) Mol Ther 17, 796-802). Biotinylated NTM peptides and their constituent modules were prepared in the same manner, with biotin added to the amino terminus at the last step of synthesis. When necessary, a 5-7 hydrophilic amino acid tag was added to peptide modules to facilitate solubility. For i.p. administration, 200 μl aliquots containing 0.4 or 0.7 mg of cSN50.1 in saline was injected at 8 h or 12 h intervals. Alternatively, 10 mg cSN50.1 in 100 μl sterile H2O was administered subcutaneously from ALZET Osmotic Pumps (1007D) placed aseptically in interscapular areas. A bolus of 0.7 mg cSN50.1 in 100 μl saline was administered i.p. at weekly pump changes to assure steady NTM bioavailability. Dosage schedules were developed based on previous experimental protocols and half-life studies. Control mice received sterile saline in the same volumes as NTM. Importins pull-down assay. Ten nmols of biotinylated NTM peptides or their constituent modules depicted in Table 1 (SN50, cSN50.1, N50, cN50.1, SSHR-1, SSHR-2) were incubated overnight at 4° C. with 1.5 mg of whole cell extract from unstimulated human Jurkat T cells or serum-starved human HepG2 cells lysed in binding buffer (10 mM HEPES at pH 7.9, 150 mM NaCl, 10 mM KCl, 2.5 mM MgCl2, 1 mM EGTA, 1 mM DTT, 0.1% NP-40, 1% protease inhibitor cocktail). Lysate was cleared by centrifugation (16,000×g for 30 min at 4° C.) and transferred to a fresh tube containing high capacity Neutravidin beads (Thermo Scientific). After 4 h, beads were separated from lysate/peptide mixture by centrifugation (30 s at 1,000×g) and washed 3 times with binding buffer and 2 times with PBS. Beads were boiled for 10 min in SDS loading buffer, and protein content was analyzed by immunoblotting with a panel of anti-importins alpha and beta antibodies and anti-GAPDH (Abcam) as a cellular protein control.

Data set [2] has as its target T1, GAPDH (Homo sapiens, UniProt P04406). Description: Importins pull-down assay, Jurkat T cell extract, control protein. In kind it is binding. More on the design: endogenous in cells. Particulars: biotinylated peptide, Jurkat T cell lysate pull-down. As to the method:
(§2) Cell-penetrating peptide cSN50.1 (2986 Da) and other peptides listed in Table 1 were synthesized and prepared as previously described (Liu, D., et al., (2009) Mol Ther 17, 796-802). Biotinylated NTM peptides and their constituent modules were prepared in the same manner, with biotin added to the amino terminus at the last step of synthesis. When necessary, a 5-7 hydrophilic amino acid tag was added to peptide modules to facilitate solubility. For i.p. administration, 200 μl aliquots containing 0.4 or 0.7 mg of cSN50.1 in saline was injected at 8 h or 12 h intervals. Alternatively, 10 mg cSN50.1 in 100 μl sterile H2O was administered subcutaneously from ALZET Osmotic Pumps (1007D) placed aseptically in interscapular areas. A bolus of 0.7 mg cSN50.1 in 100 μl saline was administered i.p. at weekly pump changes to assure steady NTM bioavailability. Dosage schedules were developed based on previous experimental protocols and half-life studies. Control mice received sterile saline in the same volumes as NTM. Importins pull-down assay. […] Beads were boiled for 10 min in SDS loading buffer, and protein content was analyzed by immunoblotting with a panel of anti-importins alpha and beta antibodies and anti-GAPDH (Abcam) as a cellular protein control.

Data set [3] addresses T2, importin beta (Homo sapiens, UniProt Q14974). As to the kind of experiment: Importins pull-down assay, HepG2 cell extract. Conditions: HepG2 cell extracts. More on the design: endogenous in cells. It is filed as binding. As to the method: as §2, with “control. […]” for “control.”
For data set [4], the target named is T1, GAPDH. As to the kind of experiment: Importins pull-down assay, HepG2 cell extract, control protein. It is filed as binding. More on the design: endogenous in cells; host or cells: human hepatoma HepG2 cells, starved overnight in 1% FBS, whole-cell extract. Particulars: HepG2 cell extracts. Here is the method: as §2, with “control. […]” for “control.”
Data set [5] has as its target T2, importin beta. As to the kind of experiment: Importins pull-down assay, Jurkat T cell extract. Particulars: biotinylated peptide, Jurkat T cell lysate pull-down. Set-up: whole cell extract from unstimulated human Jurkat T cells; endogenous in cells; host or cells: human Jurkat T cells, whole-cell extract. It is filed as binding. As to the method: as §1
In data set [6] the target is T2, importin beta. As to the kind of experiment: Nuclear Transport Modifier/importin beta competition binding assay. More on the design: whole cell extract from unstimulated human Jurkat T cells; endogenous in cells; host or cells: human Jurkat T cells, whole-cell extract. Conditions: free non-biotinylated peptide 0-300 μM, Jurkat T cell extract. Here is the method:
Non-biotinylated SN50 peptide (at 0, 10, 30, 100 or 300 μM concentrations) was incubated overnight with 1 mg of human Jurkat T cell whole-cell extract at 4° C. Simultaneously, biotinylated SN50 peptide (10 nmols) was immobilized on high capacity Neutravidin beads at 4° C. overnight, then washed 3 times with PBS and 1 time with binding buffer to remove unbound biotinylated SN50. Binding mixture was precleared by centrifugation (16,000×g for 30 min at 4° C.) and transferred to a fresh tube containing washed high capacity Neutravidin beads complexed with immobilized biotinylated SN50 peptide. Immunoblot analysis of importin beta bound to beads was performed as described in the importins pull-down assay.

Data set [7] concerns ldlr−/− mice fed a Western diet. As to the kind of experiment: Hyperlipidemia, fatty liver, hyperglycemia and weight gain in ldlr-/- mice fed a Western diet. It is filed as in vivo, mouse. As to the method:
as §2
Six week old B6.129S7-Ldlrtm1Her/J female mice were purchased from Jackson Laboratories. […] Blood chemistries were determined in fasting mouse plasma using an automated chemistry analyzer in the Vanderbilt Clinical Research Center. Total cholesterol and triglycerides in liver and cholesterol in feces were analyzed by standard methods in the Lipid Core Laboratory. […] Cryostat sections of livers were stained with Oil-red-O. Atherosclerotic lesions and macrophages were analyzed in the aortic root by staining with Oil-red-O and MOMA-2, respectively. Average lesion area was determined using Imaging System KS300 2.0.

T2 sequence (Q14974 whole entry): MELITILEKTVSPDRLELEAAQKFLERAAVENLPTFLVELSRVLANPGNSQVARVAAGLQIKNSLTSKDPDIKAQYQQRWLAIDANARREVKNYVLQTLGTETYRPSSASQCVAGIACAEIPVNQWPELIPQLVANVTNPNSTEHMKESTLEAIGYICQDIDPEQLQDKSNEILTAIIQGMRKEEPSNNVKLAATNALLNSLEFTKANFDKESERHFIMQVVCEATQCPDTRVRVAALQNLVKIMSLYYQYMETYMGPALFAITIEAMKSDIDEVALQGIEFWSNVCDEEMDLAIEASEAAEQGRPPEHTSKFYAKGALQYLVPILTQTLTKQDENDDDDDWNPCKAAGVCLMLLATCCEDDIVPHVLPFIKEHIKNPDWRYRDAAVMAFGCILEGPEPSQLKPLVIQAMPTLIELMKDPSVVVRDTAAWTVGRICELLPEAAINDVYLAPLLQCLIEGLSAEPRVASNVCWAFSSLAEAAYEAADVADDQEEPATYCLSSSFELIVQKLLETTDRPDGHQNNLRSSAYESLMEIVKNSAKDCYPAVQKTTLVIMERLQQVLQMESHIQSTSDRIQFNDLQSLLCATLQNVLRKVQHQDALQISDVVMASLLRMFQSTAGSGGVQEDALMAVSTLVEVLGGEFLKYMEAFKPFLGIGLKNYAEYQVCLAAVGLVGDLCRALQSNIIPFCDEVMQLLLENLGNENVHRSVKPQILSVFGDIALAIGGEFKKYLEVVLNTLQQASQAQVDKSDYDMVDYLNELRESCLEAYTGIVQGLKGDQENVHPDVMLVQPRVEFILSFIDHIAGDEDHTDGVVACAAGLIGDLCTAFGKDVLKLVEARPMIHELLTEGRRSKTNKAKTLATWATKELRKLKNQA
T1 sequence (P04406 whole entry): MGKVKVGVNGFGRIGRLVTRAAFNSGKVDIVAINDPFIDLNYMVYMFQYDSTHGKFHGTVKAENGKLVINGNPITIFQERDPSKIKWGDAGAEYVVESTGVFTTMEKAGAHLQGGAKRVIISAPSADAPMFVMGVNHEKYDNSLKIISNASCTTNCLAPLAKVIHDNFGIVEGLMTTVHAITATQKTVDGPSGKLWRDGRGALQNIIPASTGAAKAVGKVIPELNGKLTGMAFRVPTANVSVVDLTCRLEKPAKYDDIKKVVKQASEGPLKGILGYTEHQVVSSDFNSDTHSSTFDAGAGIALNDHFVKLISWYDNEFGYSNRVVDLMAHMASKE

`CSCC[C@@H]1NC(=O)[C@H](CC(C)C)NC(=O)[C@H](CCCCN)NC(=O)[C@H](CCC(N)=O)NC(=O)[C@H](CCCNC(=N)N)NC(=O)[C@H](CCCCN)NC(=O)[C@H](CCCNC(=N)N)NC(=O)[C@H](CCC(N)=O)NC(=O)[C@H](C(C)C)NC(=O)[C@@H](NC(=O)[C@@H]2CCCN2C(=O)[C@H](C)NC(=O)[C@H](CC(C)C)NC(=O)[C@H](CC(C)C)NC(=O)[C@H](C)NC(=O)[C@H](CC(C)C)NC(=O)[C@H](CC(C)C)NC(=O)[C@@H](NC(=O)[C@H](C)NC(=O)[C@@H]2CCCN2C(=O)[C@H](CC(C)C)NC(=O)[C@H](CC(C)C)NC(=O)[C@H](C)NC(=O)[C@@H](NC(=O)[C@H](C)NC(=O)[C@H](C)N)C(C)C)C(C)C)CSSC[C@@H](C(=O)O)NC(=O)[C@@H]2CCCN2C1=O` [cSN50.1] (H-AAVALLPAVLLALLAPCVQRKRQKLMPC-OH; disulfide 17-28; N-terminus and C-terminus assumed): the “signs of infection or illness” value in the data set with ldlr−/− mice (8 weeks of treatment) is recorded as “no overt signs of infection or illness”. In the data set on ldlr−/− mice (mouse, in vivo), the “blood cell populations and blood chemistries” value is reported as “did not reveal any significant changes”; the “general susceptibility to environmental pathogens” value is given as “did not cause any apparent signs”. In addition, the solubility in the data set “Solubility of peptides” (read-out: solubility) was determined as 100 mg/mL (≈ 33.5 mM).

As to `CSCC[C@@H]1NC(=O)[C@H](CC(C)C)NC(=O)[C@H](CCCCN)NC(=O)[C@H](CCC(N)=O)NC(=O)[C@H](CCCNC(=N)N)NC(=O)[C@H](CCCCN)NC(=O)[C@H](CCCNC(=N)N)NC(=O)[C@H](CCC(N)=O)NC(=O)[C@H](C(C)C)NC(=O)[C@H](Cc2ccc(O)cc2)NC(=O)[C@@H](NC(=O)[C@@H]2CCCN2C(=O)[C@H](C)NC(=O)[C@H](CC(C)C)NC(=O)[C@H](CC(C)C)NC(=O)[C@H](C)NC(=O)[C@H](CC(C)C)NC(=O)[C@H](CC(C)C)NC(=O)[C@@H](NC(=O)[C@H](C)NC(=O)[C@@H]2CCCN2C(=O)[C@H](CC(C)C)NC(=O)[C@H](CC(C)C)NC(=O)[C@H](C)NC(=O)[C@@H](NC(=O)[C@H](C)NC(=O)[C@H](C)N)C(C)C)C(C)C)CSSC[C@@H](C(=O)O)NC(=O)[C@@H]2CCCN2C1=O` [cSN50] (H-AAVALLPAVLLALLAPCYVQRKRQKLMPC-OH; disulfide 17-29; N-terminus and C-terminus assumed), the solubility in “Solubility of peptides” (depending on the method of synthesis and purification, read-out: soluble at levels) was 2 to 40 mg/mL (≈ 0.635 to 12.7 mM).

For “AAVALLPAVLLALLAPCVQRDEQKLMPC (disulfide 17-28 (inferred)) [cSN50.1 Beta]”, the “interaction with importins alpha 1, 4, and 5” value (from here on “interaction … and 5”) in data set [1] is “did not react”.

As to AAVALLPAVLLALLAPVQRKRQKLMP [SN50], in data set [1], the “interaction … and 5” value was “interacted”. For the same molecule, in the data set with GAPDH [2], the “interaction with control cytoplasmic marker protein GAPDH” value is listed as “not with the control cytoplasmic marker protein GAPDH”. The “interaction with importin beta” value with importin beta [3] and with importin beta [5] was “interacted” each time. Further, in the data set with GAPDH [4], the “interaction with control protein GAPDH” value is on record as “not with the control protein GAPDH”. The “inhibition of biotinylated SN50 binding to importin beta” value with importin beta [6] is recorded as “competitively inhibited”.

Turning to AVLLALLAP (HOMO SAPIENS) [SSHR-2], the “interaction with importin beta” value in the data set with importin beta [5] was “importin beta-binding function”.

For “CVQRKRQKLMPC (disulfide 1-12 (inferred)) [cN50.1]”, the “interaction … and 5” value in [1] was “maintain reactivity”. For the same molecule, in data set [7] (8 weeks), the “liver alanine and aspartate transaminases (ALT and AST) in plasma” value is reported as “elevated levels”. Also, in [7] (control peptide, plasma cholesterol and triglycerides), the “results vs mice given saline” value was “not different”. In addition, the “experimental endpoints (hypercholesterolemia) vs saline alone” value in data set [7] (non-cell penetrating control peptide in saline) is “did not differ significantly”. For the same molecule, the “interaction with importin beta” value with importin beta [5] was “did not react”.

VQRKRQKLMP (HOMO SAPIENS) [N50]: the “interaction … and 5” value in data set [1] is listed as “maintain reactivity”. Moreover, the “interaction with importin beta” value with importin beta [5] was “did not react”.
